Results: the supplement of paper PMC10307832

Tests used:
Experiment in all cases: relative viability (nuclei count vs DMSO), 5 days (fraction); higher = more cells survive
A-427 = test system: A-427
How it was run: (§1)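 Five library-drug doses in √10 steps were combined with a fixed anchor-drug dose, or a single drug was given alone, by pin tool to lung cancer cell lines in 1536-well plates the day after seeding. Nuclei were stained and counted after 5 days. Relative viability is the nuclei count in treated wells over that in vehicle wells, taken as the median of duplicate plates.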

ABC-1 = test system: ABC-1
How it was run: as §1

EMC-BAC-2 = test system: EMC-BAC-2
How it was run: as §1

HARA = test system: HARA
How it was run: as §1

HOP-62 = test system: HOP-62
How it was run: as §1

LK-2 = test system: LK-2
How it was run: as §1

LXF-289 = test system: LXF-289
How it was run: as §1

NCI-H1792 = test system: NCI-H1792
How it was run: as §1

NCI-H1944 = test system: NCI-H1944
How it was run: as §1

NCI-H1993 = test system: NCI-H1993
How it was run: as §1

NCI-H2009 = test system: NCI-H2009
How it was run: as §1

NCI-H2170 = test system: NCI-H2170
How it was run: as §1

NCI-H2228 = test system: NCI-H2228
How it was run: as §1

NCI-H3122 = test system: NCI-H3122
How it was run: as §1

NCI-H322M = test system: NCI-H322M
How it was run: as §1

NCI-H522 = test system: NCI-H522
How it was run: as §1

NCI-H596 = test system: NCI-H596
How it was run: as §1

NCI-H727 = test system: NCI-H727
How it was run: as §1

PC-3 [JPC-3] = test system: PC-3 [JPC-3]
How it was run: as §1

SK-MES-1 = test system: SK-MES-1
How it was run: as §1

SW 1573 = test system: SW 1573
How it was run: as §1

SW 900 = test system: SW 900
How it was run: as §1

O=c1cc(-c2cccc3c2Sc2ccccc2S3)oc(N2CCOCC2)c1 + COc1cccc2cc(-c3nc([C@H]4CC[C@H](C(=O)O)CC4)n4ncnc(N)c34)[nH]c12 [OSI-027] (partner 0.5 µM)
relative viability (A-427; first compound 0.08 µM): 0.48 | relative viability (A-427; first compound 0.253 µM): 0.48 | relative viability (A-427; first compound 0.8 µM): 0.573 | relative viability (A-427; first compound 8 µM): 0.475 | relative viability (ABC-1; first compound 0.08 µM): 0.501 | relative viability (ABC-1; first compound 0.253 µM): 0.478 | relative viability (ABC-1; first compound 0.8 µM): 0.609 | relative viability (ABC-1; first compound 2.53 µM): 0.452 | relative viability (ABC-1; first compound 8 µM): 0.445 | relative viability (EMC-BAC-2; first compound 0.08 µM): 0.341 | relative viability (EMC-BAC-2; first compound 0.253 µM): 0.416 | relative viability (EMC-BAC-2; first compound 0.8 µM): 0.354 | relative viability (EMC-BAC-2; first compound 2.53 µM): 0.392 | relative viability (EMC-BAC-2; first compound 8 µM): 0.406 | relative viability (HARA; first compound 0.08 µM): 0.458 | relative viability (HARA; first compound 0.253 µM): 0.624 | relative viability (HARA; first compound 0.8 µM): 0.566 | relative viability (HARA; first compound 2.53 µM): 0.424 | relative viability (HARA; first compound 8 µM): 0.481 | relative viability (HOP-62; first compound 0.08 µM): 0.888 | relative viability (HOP-62; first compound 0.253 µM): 1.17 | relative viability (HOP-62; first compound 0.8 µM): 0.913 | relative viability (HOP-62; first compound 2.53 µM): 0.745 | relative viability (HOP-62; first compound 8 µM): 1.07 | relative viability (LK-2; first compound 0.08 µM): 0.174 | relative viability (LK-2; first compound 0.253 µM): 0.189 | relative viability (LK-2; first compound 0.8 µM): 0.188 | relative viability (LK-2; first compound 2.53 µM): 0.175 | relative viability (LK-2; first compound 8 µM): 0.176 | relative viability (LXF-289; first compound 0.08 µM): 0.812 | relative viability (LXF-289; first compound 0.253 µM): 0.811 | relative viability (LXF-289; first compound 0.8 µM): 0.871 | relative viability (LXF-289; first compound 2.53 µM): 0.697 | relative viability (LXF-289; first compound 8 µM): 0.87 | relative viability (NCI-H1792; first compound 0.08 µM): 0.775 | relative viability (NCI-H1792; first compound 0.253 µM): 0.803 | relative viability (NCI-H1792; first compound 0.8 µM): 0.663 | relative viability (NCI-H1792; first compound 2.53 µM): 0.647 | relative viability (NCI-H1792; first compound 8 µM): 0.581 | relative viability (NCI-H1944; first compound 0.08 µM): 0.376 | relative viability (NCI-H1944; first compound 0.253 µM): 0.403 | relative viability (NCI-H1944; first compound 0.8 µM): 0.367 | relative viability (NCI-H1944; first compound 2.53 µM): 0.34 | relative viability (NCI-H1944; first compound 8 µM): 0.38 | relative viability (NCI-H1993; first compound 0.08 µM): 0.539 | relative viability (NCI-H1993; first compound 0.253 µM): 0.543 | relative viability (NCI-H1993; first compound 0.8 µM): 0.548 | relative viability (NCI-H1993; first compound 2.53 µM): 0.562 | relative viability (NCI-H1993; first compound 8 µM): 0.637 | relative viability (NCI-H2009; first compound 0.08 µM): 0.627 | relative viability (NCI-H2009; first compound 0.253 µM): 0.663 | relative viability (NCI-H2009; first compound 0.8 µM): 0.734 | relative viability (NCI-H2009; first compound 2.53 µM): 0.575 | relative viability (NCI-H2009; first compound 8 µM): 0.553 | relative viability (NCI-H2170; first compound 0.08 µM): 0.78 | relative viability (NCI-H2170; first compound 0.253 µM): 0.801 | relative viability (NCI-H2170; first compound 0.8 µM): 0.727 | relative viability (NCI-H2170; first compound 2.53 µM): 0.508 | relative viability (NCI-H2170; first compound 8 µM): 0.717 | relative viability (NCI-H2228; first compound 0.08 µM): 0.554 | relative viability (NCI-H2228; first compound 0.253 µM): 0.719 | relative viability (NCI-H2228; first compound 0.8 µM): 0.538 | relative viability (NCI-H2228; first compound 2.53 µM): 0.389 | relative viability (NCI-H2228; first compound 8 µM): 0.544 | relative viability (NCI-H3122; first compound 0.08 µM): 1.25 | relative viability (NCI-H3122; first compound 0.253 µM): 1.08 | relative viability (NCI-H3122; first compound 0.8 µM): 0.957 | relative viability (NCI-H3122; first compound 2.53 µM): 1.03 | relative viability (NCI-H3122; first compound 8 µM): 1.08 | relative viability (NCI-H322M; first compound 0.08 µM): 0.524 | relative viability (NCI-H322M; first compound 0.253 µM): 0.588 | relative viability (NCI-H322M; first compound 0.8 µM): 0.618 | relative viability (NCI-H322M; first compound 2.53 µM): 0.44 | relative viability (NCI-H322M; first compound 8 µM): 0.543 | relative viability (NCI-H522; first compound 0.08 µM): 0.765 | relative viability (NCI-H522; first compound 0.253 µM): 0.685 | relative viability (NCI-H522; first compound 0.8 µM): 0.722 | relative viability (NCI-H522; first compound 2.53 µM): 0.723 | relative viability (NCI-H522; first compound 8 µM): 0.803 | relative viability (NCI-H596; first compound 0.08 µM): 0.69 | relative viability (NCI-H596; first compound 0.253 µM): 0.803 | relative viability (NCI-H596; first compound 0.8 µM): 0.695 | relative viability (NCI-H596; first compound 2.53 µM): 0.683 | relative viability (NCI-H596; first compound 8 µM): 0.662 | relative viability (NCI-H727; first compound 0.08 µM): 0.631 | relative viability (NCI-H727; first compound 0.253 µM): 0.673 | relative viability (NCI-H727; first compound 0.8 µM): 0.586 | relative viability (NCI-H727; first compound 2.53 µM): 0.563 | relative viability (NCI-H727; first compound 8 µM): 0.64 | relative viability (PC-3 [JPC-3]; first compound 0.08 µM): 0.763 | relative viability (PC-3 [JPC-3]; first compound 0.253 µM): 0.8 | relative viability (PC-3 [JPC-3]; first compound 0.8 µM): 0.783 | relative viability (PC-3 [JPC-3]; first compound 2.53 µM): 0.698 | relative viability (PC-3 [JPC-3]; first compound 8 µM): 0.787 | relative viability (SK-MES-1; first compound 0.08 µM): 0.534 | relative viability (SK-MES-1; first compound 0.253 µM): 0.633 | relative viability (SK-MES-1; first compound 0.8 µM): 0.601 | relative viability (SK-MES-1; first compound 2.53 µM): 0.521 | relative viability (SK-MES-1; first compound 8 µM): 0.547 | relative viability (SW 1573; first compound 0.08 µM): 0.514 | relative viability (SW 1573; first compound 0.253 µM): 0.797 | relative viability (SW 1573; first compound 0.8 µM): 0.703 | relative viability (SW 1573; first compound 2.53 µM): 0.613 | relative viability (SW 1573; first compound 8 µM): 0.728 | relative viability (SW 900; first compound 0.08 µM): 0.573 | relative viability (SW 900; first compound 0.253 µM): 0.697 | relative viability (SW 900; first compound 0.8 µM): 0.459 | relative viability (SW 900; first compound 2.53 µM): 0.494 | relative viability (SW 900; first compound 8 µM): 0.596
